Data from patent US8735398B2 (Bristol-Myers Squibb Company, priority 2009, dated 2014).

What follows are compounds tested on HCV 1b genotype (assay: HCV replicon assay (HCV-neo replicon cells, wild-type)). Conditions: Hepatitis C virus, HCV 1b genotype replicon; class symbol; read-out: EC50 Range against HCV 1b.
Format: cell-based, Hepatitis C virus
How it was run: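 HCV-neo replicon cells (wild-type) and replicon cells carrying NS5A resistance substitutions were treated with compounds; assay per O'Boyle et al. 2005, with luciferase-reporter read-out variants also used.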

SMILES	EC50 [nM]
COc1cccc2c(C(=O)N3CCC[C@H]3C(=O)Nc3ccc(-c4nnc(-c5ccc(NC(=O)[C@@H]6CCCN6C(=O)c6nc(Cl)cc7c(OC)cccc67)cc5)o4)cc3)nc(Cl)cc12 [RK-32, (2S,2′S)-N,N′-(1,3,4-oxadiazole-2,5-diyldi-4,1-phenylene)bis(1-((3-chloro-5-methoxy-1-isoquinolinyl)carbonyl)-2-pyrrolidinecarboxamide)]	100 to 999
C[C@H](NC(=O)c1nc(Cl)cc2ccccc12)C(=O)Nc1ccc(-c2cc(-c3ccc(NC(=O)[C@H](C)NC(=O)c4nc(Cl)cc5ccccc45)cc3)[nH]n2)cc1 [OL-48, N,N′-(1H-pyrazole-3,5-diylbis(4,1-phenyleneimino((2S)-1-oxo-1,2-propanediyl)))bis(3-chloro-1-isoquinolinecarboxamide)]	100 to 999
O=C(Nc1ccc(-c2nnc(-c3ccc(NC(=O)[C@H]4CCCN4C(=O)c4cccc(F)n4)cc3)o2)cc1)[C@H]1CCCN1C(=O)c1cccc(F)n1 [RK-25, (2R,2′R)-N,N′-(1,3,4-oxadiazole-2,5-diyldi-4,1-phenylene)bis(1-((6-fluoro-2-pyridinyl)carbonyl)-2-pyrrolidinecarboxamide)]	100 to 999
O=C(Nc1ccc(-c2nc[nH]c2-c2ccc(NC(=O)[C@@H]3CCCN3C(=O)[C@H](O)c3ccccc3)cc2)cc1)[C@@H]1CCCN1C(=O)[C@H](O)c1ccccc1 [JG-43, (2S,2′S)-N,N′-(1H-imidazole-4,5-diyldi-4,1-phenylene)bis(1-((2R)-2-hydroxy-2-phenylacetyl)-2-pyrrolidinecarboxamide)]	< 4.57
CN(C)[C@@H](C(=O)N1CCC[C@H]1C(=O)N1CCC[C@H]1C(=O)Nc1ccc(-c2cnc(-c3ccc(NC(=O)[C@@H]4CCCN4C(=O)[C@@H]4CCCN4C(=O)[C@@H](c4ccccc4)N(C)C)cc3)o2)cc1)c1ccccc1 [Example D-38, (2S,2′S)-N,N′-(1,3-oxazole-2,5-diyldi-4,1-phenylene)bis(1-(((2S)-1-((2R)-2-(dimethylamino)-2-phenylacetyl)-2-pyrrolidinyl)carbonyl)-2-pyrrolidinecarboxamide)]	100 to 999
CC(=O)N1CCC[C@H]1C(=O)Nc1ccc(-c2nnc(-c3ccc(NC(=O)[C@@H]4CCCN4C(=O)Cc4cccs4)cc3)o2)cc1 [Example D-62, (2S)-1-acetyl-N-[4-[5-[4-[[[(2S)-1-(2-thienylacetyl)-2-pyrrolidinyl]carbonyl]amino]phenyl]-1,3,4-oxadiazol-2-yl]phenyl]-2-pyrrolidinecarboxamide]	1000 to 10000
C[C@H](NC(=O)c1cccc(F)n1)C(=O)Nc1ccc(-c2nnc(-c3ccc(NC(=O)[C@H](C)NC(=O)c4cccc(F)n4)cc3)o2)cc1 [RK-29, N,N′-(1,3,4-oxadiazole-2,5-diylbis(4,1-phenyleneimino((2S)-1-oxo-1,2-propanediyl)))bis(6-fluoro-2-pyridinecarboxamide)]	1000 to 10000
COc1cccc2c(C(=O)N3CCC[C@H]3C(=O)Nc3ccc(-c4ccc(-c5ccc(NC(=O)[C@@H]6CCCN6C(=O)[C@H](O)c6ccccc6)cc5)o4)cc3)nc(Cl)cc12 [JG-64, (2S)-1-((3-chloro-5-methoxy-1-isoquinolinyl)carbonyl)-N-(4-(5-(4-((((2S)-1-((2R)-2-hydroxy-2-phenylacetyl)-2-pyrrolidinyl)carbonyl)amino)phenyl)-2-furyl)phenyl)-2-pyrrolidinecarboxamide]	4.57 to 99
CC(NC(=O)[C@@H](O)c1ccccc1)C(=O)Nc1ccc(-c2cc(-c3ccc(NC(=O)[C@H](C)NC(=O)[C@@H](O)c4ccccc4)cc3)n[nH]2)cc1 (stereo in doubt) [OL-43, (S)-2-((S)-2-hydroxy-2-phenylacetamido)-N-(4-(5-(4-((R)-2-((S)-2-hydroxy-2-phenylacetamido)propanamido)phenyl)-1H-pyrazol-3-yl)phenyl)propanamide]	4.57 to 99
O=C(O)Cc1nc(-c2ccc(NC(=O)[C@@H]3CCCN3C(=O)OCc3ccccc3)cc2)c(-c2ccc(NC(=O)[C@@H]3CCCN3C(=O)OCc3ccccc3)cc2)o1 [OL-3, 4,5-bis[4-[[[(2S)-1-[(phenylmethoxy)carbonyl]-2-pyrrolidinyl]carbonyl]amino]phenyl]-2-oxazoleacetic acid]	1000 to 10000
Cn1nc(-c2ccc(NC(=O)[C@@H]3CCCN3C(=O)Cc3ccccc3)cc2)cc1-c1ccc(NC(=O)[C@@H]2CCCN2C(=O)Cc2ccccc2)cc1 [FY-1, (2S,2′S)-N,N′-((1-methyl-1H-pyrazole-3,5-diyl)di-4,1-phenylene)bis(1-(phenylacetyl)-2-pyrrolidinecarboxamide)]	100 to 999
CC(=O)N1CCC[C@H]1C(=O)Nc1ccc(-c2nc(C)sc2-c2ccc(NC(=O)[C@@H]3CCCN3C(C)=O)cc2)cc1 [Example D-43, (2S,2′S)-N,N′-((2-methyl-1,3-thiazole-4,5-diyl)di-4,1-phenylene)bis(1-acetyl-2-pyrrolidinecarboxamide)]	100 to 999
C[C@H](NC(=O)Cc1ccccc1)C(=O)Nc1ccc(-c2nc[nH]c2-c2ccc(NC(=O)[C@H](C)NC(=O)Cc3ccccc3)cc2)cc1 [OL-9, (2S,2′S)-N,N′-(1H-imidazole-4,5-diyldi-4,1-phenylene)bis(2-((phenylacetyl)amino)propanamide)]	1000 to 10000
O=C(Nc1ccc(-c2nc[nH]c2-c2ccc(NC(=O)[C@@H]3CCCN3C(=O)c3nc(Cl)cc4ccccc34)cc2)cc1)[C@@H]1CCCN1C(=O)c1nc(Cl)cc2ccccc12 [JG-49, (2S,2′S)-N,N′-(1H-imidazole-4,5-diyldi-4,1-phenylene)bis(1-((3-chloro-1-isoquinolinyl)carbonyl)-2-pyrrolidinecarboxamide)]	1000 to 10000
O=C(Nc1cccc(-c2ccc(-c3cccc(NC(=O)[C@@H]4CCCN4C(=O)Cc4ccccc4)c3)s2)c1)[C@@H]1CCCN1C(=O)Cc1ccccc1 [OL-25, (2S,2′S)-N,N′-(2,5-thienediyldi-3,1-phenylene)bis[1-(phenylacetyl)-2-pyrrolidinecarboxamide]]	4.57 to 99
CC(=O)N[C@@H](C(=O)N1CCCC1C(=O)Nc1ccc(-c2cnc(-c3ccc(NC(=O)C4CCCN4C(=O)[C@H](NC(C)=O)c4ccccc4)cc3)o2)cc1)c1ccccc1 (stereo partly drawn) [OL-53, N,N′-(1,3-oxazole-2,5-diyldi-4,1-phenylene)bis(1-((2R)-2-acetamido-2-phenylacetyl)-2-pyrrolidinecarboxamide)]	< 4.57
NC(=O)[C@@H]1C[C@@H]2C[C@@H]2N1C(=O)C1c2ccccc2C=CN1c1ccc(-c2ncc(-c3ccc(NC(=O)[C@@H]4C[C@@H]5C[C@@H]5N4C(=O)c4nccc5ccccc45)cc3)o2)cc1 (stereo partly drawn) [CB-2, (1S,3S,5S,1′S,3′S,5′S)-N,N′-(1,3-oxazole-2,5-diyldi-4,1-phenylene)bis(2-(1-isoquinolinylcarbonyl)-2-azabicyclo[3.1.0]hexane-3-carboxamide)]	100 to 999
O=C(C(=O)N1CCC[C@H]1C(=O)Nc1ccc(-c2cc(-c3ccc(NC(=O)[C@@H]4CCCN4C(=O)C(=O)c4ccccc4)cc3)[nH]n2)cc1)c1ccccc1 [JG-31, (2S,2′S)-N,N′-(1H-pyrazole-3,5-diyldi-4,1-phenylene)bis(1-(oxo(phenyl)acetyl)-2-pyrrolidinecarboxamide)]	4.57 to 99

Same assay, conditions: Hepatitis C virus, HCV 1b genotype replicon; class symbols; read-out: EC50 Range against HCV 1b

SMILES	EC50 [nM]
COc1cc(C(=O)N2CCC[C@H]2C(=O)Nc2ccc(-c3nnc(-c4ccc(NC(=O)[C@@H]5CCCN5C(=O)c5cc(Cl)nc(OC)c5)cc4)o3)cc2)cc(Cl)n1 [RK-40, (2S,2′S)-N,N′-(1,3,4-oxadiazole-2,5-diyldi-4,1-phenylene)bis(1-(2-chloro-6-methoxyisonicotinoyl)-2-pyrrolidinecarboxamide)]	1000 to 10000
CC[C@@H](C(=O)N1CCC[C@H]1C(=O)Nc1ccc(-c2cnc(-c3ccc(NC(=O)[C@@H]4CCCN4C(=O)[C@H](CC)c4ccccc4)cc3)o2)cc1)c1ccccc1 [XY-20, (2S,2′S)-N,N′-(1,3-oxazole-2,5-diyldi-4,1-phenylene)bis(1-((2R)-2-phenylbutanoyl)-2-pyrrolidinecarboxamide)]	4.57 to 99
O=C(Nc1ccc(-c2cnc(-c3ccc(NC(=O)[C@@H]4C[C@@H](O)CN4C(=O)[C@H]4CCCO4)cc3)o2)cc1)[C@@H]1C[C@@H](O)CN1C(=O)[C@H]1CCCO1 [XY-50, (2S,4R,2′S,4′R)-N,N′-(1,3-oxazole-2,5-diyldi-4,1-phenylene)bis(4-hydroxy-1-((2R)-tetrahydro-2-furanylcarbonyl)-2-pyrrolidinecarboxamide)]	1000 to 10000
O=C(Nc1ccc(-c2cnc(-c3ccc(NC(=O)[C@@H]4CCCN4C(=O)[C@H]4CCCO4)cc3)o2)cc1)[C@@H]1CCCN1C(=O)[C@H]1CCCO1 [XY-32, (2S,2′S)-N,N′-(1,3-oxazole-2,5-diyldi-4,1-phenylene)bis(1-((2R)-tetrahydro-2-furanylcarbonyl)-2-pyrrolidinecarboxamide)]	4.57 to 99
C[C@H](NC(=O)[C@H](c1ccccc1)N(C)C)C(=O)Nc1ccc(-c2nnc(-c3ccc(NC(=O)[C@H](C)NC(=O)[C@H](c4ccccc4)N(C)C)cc3)o2)cc1 [RK-38, (2S,2′S)-N,N′-(1,3,4-oxadiazole-2,5-diyldi-4,1-phenylene)bis(2-(((2S)-2-(dimethylamino)-2-phenylacetyl)amino)propanamide)]	< 4.57
CCc1ccccc1C(=O)N1C[C@H](OC(C)(C)C)C[C@H]1C(=O)Nc1ccc(-c2cnc(-c3ccc(NC(=O)[C@@H]4C[C@@H](OC(C)(C)C)CN4C(=O)c4ccccc4CC)cc3)o2)cc1 [XY-65, (2S,4R,2′S,4′R)-N,N′-(1,3-oxazole-2,5-diyldi-4,1-phenylene)bis(4-tert-butoxy-1-(2-ethylbenzoyl)-2-pyrrolidinecarboxamide)]	1000 to 10000
COc1cccc(CC(=O)N2C[C@H](OC(C)(C)C)C[C@H]2C(=O)Nc2ccc(-c3cnc(-c4ccc(NC(=O)[C@@H]5C[C@@H](OC(C)(C)C)CN5C(=O)Cc5cccc(OC)c5)cc4)o3)cc2)c1 [XY-77, (2S,4R,2′S,4′R)-N,N′-(1,3-oxazole-2,5-diyldi-4,1-phenylene)bis(4-tert-butoxy-1-((3-methoxyphenyl)acetyl)-2-pyrrolidinecarboxamide)]	100 to 999

Same assay, conditions: Hepatitis C virus, HCV 1b genotype replicon; read-out: EC50 1b

SMILES	EC50 [nM]
CC[C@@H](C(=O)N1CCC[C@H]1C(=O)Nc1ccc(-c2cnc(-c3ccc(NC(=O)[C@@H]4CCCN4C(=O)[C@H](CC)c4ccccc4)cc3)o2)cc1)c1ccccc1 [XY-20, (2S,2′S)-N,N′-(1,3-oxazole-2,5-diyldi-4,1-phenylene)bis(1-((2R)-2-phenylbutanoyl)-2-pyrrolidinecarboxamide)]	62
C[C@H](NC(=O)c1nc(Cl)cc2ccccc12)C(=O)Nc1ccc(-c2cc(-c3ccc(NC(=O)[C@H](C)NC(=O)c4nc(Cl)cc5ccccc45)cc3)[nH]n2)cc1 [OL-48, N,N′-(1H-pyrazole-3,5-diylbis(4,1-phenyleneimino((2S)-1-oxo-1,2-propanediyl)))bis(3-chloro-1-isoquinolinecarboxamide)]	280
C[C@H](NC(=O)[C@H](c1ccccc1)N(C)C)C(=O)Nc1ccc(-c2nnc(-c3ccc(NC(=O)[C@H](C)NC(=O)[C@H](c4ccccc4)N(C)C)cc3)o2)cc1 [RK-38, (2S,2′S)-N,N′-(1,3,4-oxadiazole-2,5-diyldi-4,1-phenylene)bis(2-(((2S)-2-(dimethylamino)-2-phenylacetyl)amino)propanamide)]	< 5
CN(C)[C@@H](C(=O)N1CCC[C@H]1C(=O)N1CCC[C@H]1C(=O)Nc1ccc(-c2cnc(-c3ccc(NC(=O)[C@@H]4CCCN4C(=O)[C@@H]4CCCN4C(=O)[C@@H](c4ccccc4)N(C)C)cc3)o2)cc1)c1ccccc1 [Example D-38, (2S,2′S)-N,N′-(1,3-oxazole-2,5-diyldi-4,1-phenylene)bis(1-(((2S)-1-((2R)-2-(dimethylamino)-2-phenylacetyl)-2-pyrrolidinyl)carbonyl)-2-pyrrolidinecarboxamide)]	110
CC(=O)N1CCC[C@H]1C(=O)Nc1ccc(-c2nnc(-c3ccc(NC(=O)[C@@H]4CCCN4C(=O)Cc4cccs4)cc3)o2)cc1 [Example D-62, (2S)-1-acetyl-N-[4-[5-[4-[[[(2S)-1-(2-thienylacetyl)-2-pyrrolidinyl]carbonyl]amino]phenyl]-1,3,4-oxadiazol-2-yl]phenyl]-2-pyrrolidinecarboxamide]	3470
